One test has as its target T1, Human Calpain 2/NS1 (Homo sapiens, UniProt P17655).
T1 sequence (P17655 1-700): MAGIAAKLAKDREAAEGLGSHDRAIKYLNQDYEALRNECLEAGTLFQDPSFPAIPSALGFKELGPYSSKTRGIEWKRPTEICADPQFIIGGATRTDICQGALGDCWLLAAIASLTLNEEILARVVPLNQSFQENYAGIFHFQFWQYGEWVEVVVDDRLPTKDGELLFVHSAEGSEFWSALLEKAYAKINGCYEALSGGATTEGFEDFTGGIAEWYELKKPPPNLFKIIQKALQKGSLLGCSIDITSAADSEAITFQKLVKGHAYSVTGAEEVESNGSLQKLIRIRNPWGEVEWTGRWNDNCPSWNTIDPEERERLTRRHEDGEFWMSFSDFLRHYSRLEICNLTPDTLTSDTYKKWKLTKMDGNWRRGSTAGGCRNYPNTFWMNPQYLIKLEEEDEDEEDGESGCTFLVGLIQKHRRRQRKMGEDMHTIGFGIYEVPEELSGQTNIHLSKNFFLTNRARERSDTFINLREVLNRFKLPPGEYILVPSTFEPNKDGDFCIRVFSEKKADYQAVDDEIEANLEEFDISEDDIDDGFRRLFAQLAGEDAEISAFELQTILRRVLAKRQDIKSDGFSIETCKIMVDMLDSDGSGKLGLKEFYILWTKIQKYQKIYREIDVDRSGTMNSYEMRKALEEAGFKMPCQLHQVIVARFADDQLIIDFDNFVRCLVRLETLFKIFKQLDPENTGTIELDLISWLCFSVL
T1 sequence (P04632 1-268 partner): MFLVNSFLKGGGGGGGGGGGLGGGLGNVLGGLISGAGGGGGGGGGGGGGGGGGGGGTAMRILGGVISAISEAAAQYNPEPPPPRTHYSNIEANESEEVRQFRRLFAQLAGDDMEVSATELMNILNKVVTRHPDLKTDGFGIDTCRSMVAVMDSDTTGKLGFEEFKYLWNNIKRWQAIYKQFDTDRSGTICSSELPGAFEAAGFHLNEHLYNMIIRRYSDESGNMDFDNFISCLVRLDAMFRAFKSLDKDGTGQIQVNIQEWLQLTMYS
Nature of the test: Biochemical inhibition of calpain 2, continuous fluorescence (FRET substrate) assay. To be noted: mean, read-out: Human Calpain 2/NS1 IC50 (nM)_MEAN. In outline: (§1)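 IC50 values come from 4-parameter fits of progress-curve rates (1-5 min slopes) against log inhibitor concentration. Calpain and inhibitor premixed at ambient 25C in Tris pH ~7.5/NaCl/DTT buffer, then CaCl2 and FRET substrate added to activate; 5-FAM fluorescence (ex 490/em 520) followed 10 min.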

A further test concerns the target T2, Human Calpain 9/NS1 (Homo sapiens, UniProt O14815).
T2 sequence (O14815 1-690): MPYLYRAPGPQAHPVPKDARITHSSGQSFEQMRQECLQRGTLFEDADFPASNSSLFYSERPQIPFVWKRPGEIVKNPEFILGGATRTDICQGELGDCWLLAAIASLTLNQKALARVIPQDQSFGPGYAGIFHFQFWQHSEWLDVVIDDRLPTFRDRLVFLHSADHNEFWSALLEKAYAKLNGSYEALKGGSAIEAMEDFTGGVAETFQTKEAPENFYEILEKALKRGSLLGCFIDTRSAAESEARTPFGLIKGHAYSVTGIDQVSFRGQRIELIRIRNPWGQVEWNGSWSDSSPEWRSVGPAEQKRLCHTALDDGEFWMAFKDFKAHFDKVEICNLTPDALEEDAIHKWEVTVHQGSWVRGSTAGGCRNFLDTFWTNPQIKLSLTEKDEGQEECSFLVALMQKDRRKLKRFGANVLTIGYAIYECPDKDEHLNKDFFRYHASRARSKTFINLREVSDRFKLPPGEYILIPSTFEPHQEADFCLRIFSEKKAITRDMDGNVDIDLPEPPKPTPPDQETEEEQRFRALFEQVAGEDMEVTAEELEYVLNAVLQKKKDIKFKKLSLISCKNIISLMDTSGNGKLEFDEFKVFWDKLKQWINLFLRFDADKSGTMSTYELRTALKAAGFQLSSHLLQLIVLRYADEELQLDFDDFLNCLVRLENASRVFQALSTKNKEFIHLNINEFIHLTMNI
T2 sequence (P04632 1-268 partner): T1 sequence (P04632 1-268 partner)
Briefly: Biochemical inhibition of calpain 9, continuous fluorescence (FRET substrate) assay. The note with it: mean, read-out: Human Calpain 9/NS1 IC50 (nM)_MEAN. The procedure, abridged: as §1

In the next test the target is T3, Human Calpain 1/NS1 (Homo sapiens, UniProt P07384).
T3 sequence (P07384 1-714): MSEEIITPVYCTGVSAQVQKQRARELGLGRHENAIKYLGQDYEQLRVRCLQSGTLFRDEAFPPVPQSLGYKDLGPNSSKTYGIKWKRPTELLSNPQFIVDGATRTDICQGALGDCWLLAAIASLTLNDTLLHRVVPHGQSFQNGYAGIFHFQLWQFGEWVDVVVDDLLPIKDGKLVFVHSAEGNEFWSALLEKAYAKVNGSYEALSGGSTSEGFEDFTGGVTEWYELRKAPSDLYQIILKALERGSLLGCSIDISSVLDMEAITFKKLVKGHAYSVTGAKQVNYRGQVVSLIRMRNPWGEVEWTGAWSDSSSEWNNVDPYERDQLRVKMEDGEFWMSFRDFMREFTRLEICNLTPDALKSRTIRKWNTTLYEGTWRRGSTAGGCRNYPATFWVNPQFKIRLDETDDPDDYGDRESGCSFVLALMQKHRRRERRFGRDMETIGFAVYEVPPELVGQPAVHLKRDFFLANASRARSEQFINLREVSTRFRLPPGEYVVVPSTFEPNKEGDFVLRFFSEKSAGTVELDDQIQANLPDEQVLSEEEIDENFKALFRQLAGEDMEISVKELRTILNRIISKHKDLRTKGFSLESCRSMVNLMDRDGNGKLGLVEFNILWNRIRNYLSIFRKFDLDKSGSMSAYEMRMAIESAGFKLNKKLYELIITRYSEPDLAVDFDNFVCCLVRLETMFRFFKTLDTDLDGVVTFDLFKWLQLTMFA
T3 sequence (P04632 1-268 partner): T1 sequence (P04632 1-268 partner)
Briefly: Biochemical inhibition of calpain 1, continuous fluorescence (FRET substrate) assay. To be noted: mean, read-out: Human Calpain 1/NS1 IC50 (nM)_MEAN. In outline: as §1

For the molecule `O=C[C@@H]1Cc2ccc(cc2)OC/C=C/COc2ccc3c(cnn3-c3ncccc3C(=O)N1)c2` [Compound 66, (5S,E)-3-oxo-1^1H-8,13-dioxa-4-aza-1(1,5)-indazola-2(2,3)-pyridina-7(1,4)-benzenacyclotridecaphan-10-ene-5-carbaldehyde], the IC50 at Human Calpain 2/NS1, at Human Calpain 9/NS1 and on Human Calpain 1/NS1 was below 3000 nM each time.

For `O=C(NCc1ccccc1Cl)C(=O)C1CCCCOCCOCc2ccccc2C(=O)N1` (stereo not drawn) [Compound 95, N-(2-chlorobenzyl)-2-oxo-2-(12-oxo-1,3,4,6,7,8,9,10,11,12-decahydrobenzo[f][1,4]dioxa[9]azacyclotetradecin-10-yl)acetamide], the IC50 is above 10000 nM at Human Calpain 2/NS1, below 3000 nM on Human Calpain 9/NS1 and above 10000 nM at Human Calpain 1/NS1.

Turning to `O=C1NC(C(=O)C(=O)N2CCOCC2)CCCCOCCOCc2ccccc21` (stereo not drawn) [Compound 115, 1-Morpholino-2-(12-oxo-1,3,4,6,7,8,9,10,11,12-decahydrobenzo[f][1,4]dioxa[9]azacyclotetradecin-10-yl)ethane-1,2-dione], the IC50 at Human Calpain 2/NS1, at Human Calpain 9/NS1 and on Human Calpain 1/NS1 was above 10000 nM throughout.

For the molecule `O=C(NCc1cccnc1)C(=O)C1CCCCOCCOCc2ccccc2C(=O)N1` (stereo not drawn) [Compound 103, 2-Oxo-2-(12-oxo-1,3,4,6,7,8,9,10,11,12-decahydrobenzo[f][1,4]dioxa[9]aza-cyclotetradecin-10-yl)-N-(pyridin-3-ylmethyl)acetamide], the IC50 on Human Calpain 2/NS1 is above 10000 nM; at Human Calpain 9/NS1, below 3000 nM; at Human Calpain 1/NS1 it was above 10000 nM.

`O=C(NCc1ccc(Cl)cc1Cl)C(=O)C1CCCCOCCOCc2ccccc2C(=O)N1` (stereo not drawn) [Compound 96, N-(2,4-dichlorobenzyl)-2-oxo-2-(12-oxo-1,3,4,6,7,8,9,10,11,12-decahydrobenzo[f][1,4]dioxa[9]azacyclotetradecin-10-yl)acetamide]: the IC50 on Human Calpain 2/NS1 is above 10000 nM; on Human Calpain 9/NS1, 3000 to 10000 nM; on Human Calpain 1/NS1 it was above 10000 nM.

With `O=C[C@@H]1C/C=C/CCCOc2ccccc2C(=O)N1` [Compound 21, (S)-10-Oxo-3,4,7,8,9,10-hexahydro-2h-benzo[b][1]oxa[5]aza-cyclododecine-8-carbaldehyde], the IC50 was 3000 to 10000 nM on Human Calpain 2/NS1, 3000 to 10000 nM on Human Calpain 9/NS1 and above 10000 nM on Human Calpain 1/NS1.

As to `CC(C)NC(=O)C(=O)[C@@H]1CCCCOCCOCc2ccccc2C(=O)N1` [Compound 52, (S)—N-isopropyl-2-oxo-2-(12-oxo-1,3,4,6,7,8,9,10,11,12-decahydrobenzo[f][1,4]dioxa[9]azacyclotetradecin-10-yl)acetamide], the IC50 on Human Calpain 2/NS1, at Human Calpain 9/NS1 and at Human Calpain 1/NS1 was above 10000 nM each time.

On to `O=C[C@@H]1Cc2cccc(c2)CCCCOc2cccc(c2)-c2ncccc2C(=O)N1` [Compound 35, (S)-3-Oxo-12-oxa-4-aza-2(2,3)-pyridina-1,7(1,3)-dibenzenacyclododecaphane-5-carbaldehyde], for which the IC50 on Human Calpain 2/NS1, at Human Calpain 9/NS1 and at Human Calpain 1/NS1 was below 3000 nM each time.

Regarding `COCCOCCOCCNC(=O)C(=O)C1CCCCOCCOCc2ccccc2C(=O)N1` (stereo not drawn) [Compound 122, N-(2-(2-(2-methoxyethoxy)ethoxy)ethyl)-2-oxo-2-(12-oxo-1,3,4,6,7,8,9,10,11,12-decahydrobenzo[f][1,4]dioxa[9]azacyclotetradecin-10-yl)acetamide], the IC50 at Human Calpain 2/NS1, at Human Calpain 9/NS1 and on Human Calpain 1/NS1 was above 10000 nM in each case.

In the case of `O=C(NCc1c(F)cccc1Cl)C(=O)C1CCCCOCCOCc2ccccc2C(=O)N1` (stereo not drawn) [Compound 107], the figures for the IC50 on Human Calpain 2/NS1, on Human Calpain 9/NS1 and on Human Calpain 1/NS1 were above 10000 nM, 3000 to 10000 nM and above 10000 nM, respectively.

Regarding `Cc1cc2n(n1)-c1cccc(c1)OCCCCC[C@@H](C(=O)C(N)=O)NC2=O` [Compound 141, (S)-2-oxo-2-(11-oxo-1^1H-3-oxa-10-aza-1(3,4)-pyrazola-2(1,3)-benzena-cycloundecaphane-9-yl)acetamide], the IC50 on Human Calpain 2/NS1, on Human Calpain 9/NS1 and on Human Calpain 1/NS1 was below 3000 nM throughout.

Take `CCOC(=O)CNC(=O)C(=O)[C@@H]1CCCCOCCOCc2ccccc2C(=O)N1` [Compound 56, Ethyl (S)-(2-oxo-2-(12-oxo-1,3,4,6,7,8,9,10,11,12-decahydrobenzo[f][1,4]dioxa[9]azacyclotetradecin-10-yl)acetyl)glycinate]: the IC50 was below 3000 nM on Human Calpain 2/NS1, below 3000 nM at Human Calpain 9/NS1 and above 10000 nM on Human Calpain 1/NS1.

Turning to `O=C(NCCc1cccnc1)C(=O)C1CCCCOCCOCc2ccccc2C(=O)N1` (stereo not drawn) [Compound 101, 2-Oxo-2-(12-oxo-1,3,4,6,7,8,9,10,11,12-decahydrobenzo[f][1,4]dioxa[9]aza-cyclotetradecin-10-yl)-N-(2-(pyridin-3-yl)ethyl)acetamide], the IC50 was above 10000 nM at Human Calpain 2/NS1, 3000 to 10000 nM at Human Calpain 9/NS1 and above 10000 nM at Human Calpain 1/NS1.

Take `O=C[C@@H]1CC=CCCOc2ccnc(n2)-c2ccccc2C(=O)N1` [Compound 39, (S)-3-Oxo-11-oxa-4-aza-1(2,4)-pyrimidina-2(1,2)-benzenacyclo undecaphan-7-ene-5-carbaldehyde]: the IC50 was below 3000 nM on Human Calpain 2/NS1, below 3000 nM at Human Calpain 9/NS1 and 3000 to 10000 nM at Human Calpain 1/NS1.

Regarding `CCNC(=O)C(=O)[C@@H]1Cc2ccc(cc2)OCCCCOc2ccc3c(cnn3-c3ncccc3C(=O)N1)c2` [Compound 47, N-ethyl-2-oxo-2-((5S)-3-oxo-1H-8,13-dioxa-4-aza-1(1,5)-indazola-2(2,3)-pyridina-7(1,4)-benzenacyclotridecaphane-5-yl)acetamide], the IC50 on Human Calpain 2/NS1, at Human Calpain 9/NS1 and at Human Calpain 1/NS1 was below 3000 nM each time.

As to `COc1cccc(CN(C)C(=O)C(=O)C2CCCCOCCOCc3ccccc3C(=O)N2)c1` (stereo not drawn) [Compound 116, N-(3-methoxybenzyl)-N-methyl-2-oxo-2-(12-oxo-1,3,4,6,7,8,9,10,11,12-decahydrobenzo[f][1,4]dioxa[9]azacyclotetradecin-10-yl)acetamide], the IC50 at Human Calpain 2/NS1, at Human Calpain 9/NS1 and on Human Calpain 1/NS1 was above 10000 nM throughout.

For the origin of these results see patent publication US11292801B2, “Calpain modulators and therapeutic uses thereof” (Blade Therapeutics, Inc., priority 2016, dated 2022).
